Data as given in publication PMC9822022, “Biginelli Reaction Synthesis of Novel Multitarget-Directed Ligands with Ca^2+ Channel Blocking Ability, Cholinesterase Inhibition, Antioxidant Capacity, and Nrf2 Activation” (Molecules, 2022).
Several values for one entry are separate records, joined by “and”; a condition that tells them apart may be missing. Equal entries are not always repeated.

Legend:
[1] = molecular target: eqBuChE (BuChE from equine serum) (Equus caballus, UniProt P81908); assay: biochemical; settings: ± SD
eqBuChE (BuChE from equine serum), sequence (P81908 whole entry): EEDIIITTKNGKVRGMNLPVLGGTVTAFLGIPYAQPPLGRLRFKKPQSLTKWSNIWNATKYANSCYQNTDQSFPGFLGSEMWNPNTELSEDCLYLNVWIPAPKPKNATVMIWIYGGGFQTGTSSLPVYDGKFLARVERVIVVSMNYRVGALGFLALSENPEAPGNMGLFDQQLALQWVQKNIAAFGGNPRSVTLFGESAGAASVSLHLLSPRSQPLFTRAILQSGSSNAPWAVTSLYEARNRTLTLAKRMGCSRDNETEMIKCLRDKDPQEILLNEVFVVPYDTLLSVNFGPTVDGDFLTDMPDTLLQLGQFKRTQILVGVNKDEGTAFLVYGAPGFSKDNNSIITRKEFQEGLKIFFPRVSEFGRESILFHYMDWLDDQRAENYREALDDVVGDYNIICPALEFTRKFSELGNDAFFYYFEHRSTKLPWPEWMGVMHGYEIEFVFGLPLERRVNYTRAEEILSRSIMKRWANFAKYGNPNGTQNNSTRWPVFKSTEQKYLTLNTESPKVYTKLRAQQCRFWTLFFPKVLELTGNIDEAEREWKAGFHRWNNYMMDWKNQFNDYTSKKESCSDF

calcium channel = assay: Ca+2 channel blockade, FLIPR Calcium 6 in SH-SY5Y cells; type: cell-based; settings: KCl/CaCl2 triggered, ± SD
Method: The Ca^+2 channel blockade capacity of compounds BIGI 4a-d and BIGI 5a-d, and nimodipine as standard, at 10 μM concentration was carried out following the usual methodology [28].
The evaluation of the calcium channel blockade of compounds BIGI 4a-d and BIGI 5a-d was carried out using FLIPR Calcium 6 indicator according to previously described protocols [35, 36]. In brief, FLIPR-loaded SH-SY5Y cells were exposed to nimodipine (10 µM, reference inhibitor), DMSO (0.1%, vehicle), or our compounds of interest (10 µM) for 10 min. […] Data were gathered in three independent experiments with eight technical replicates per experiment. Outlier detection by Grubbs’ test was performed and outlying values were excluded from further analysis.

Nrf2-ARE [2] = assay: Nrf2/ARE-luciferase reporter cell assay; type: cell-based; settings: for Induction of the Nrf2 transcriptional pathway: 24 h, 5, 10 and 50 μM (up to 100 μM for BIGI 5d); for CD (concentration required to double the specific luciferase reporter activity): 24 h treatment, means ± SEM
Method: The Nrf2-ARE-activating effect of BIGI 4b, BIGI 4d, BIGI 5b, and BIGI 5d, the most balanced compounds against cholinesterase inhibition, calcium channel blockade, and antioxidant power, was determined in vitro using a cell-based luciferase assay in the AREc32 cell line, which represents a good model for the redox-dependent activation of Nrf2 [31]. TBHQ was used as the positive control.
AREc32 cells were treated over 24 h with increasing concentrations of each compound (5, 10, 50, 100 μM) and then luciferase activity was measured. Preliminarily, the cytotoxicity of compounds against AREc32 cells were evaluated, showing no toxicity until 50 μM for compounds BIGI 4b, BIGI 4d, and BIGI 5b and until 100 μM for compound BIGI 5d.
CD values (i.e., the concentration required to double the specific activity of the luciferase reporter) were calculated to compare the relative potencies.
Treatment of stable ARE-luciferase reporter cells with the tested compounds and evaluation of the luciferase activity: The NRF2/ARE-luciferase reporter HEK293 stable cell line (Signosis, Santa Clara, CA, USA) was maintained in Dulbecco’s MEM high-glucose (DMEM) medium supplemented with 10% FBS and penicillin–streptomycin at 37 °C in 95% air/5% CO2. For treatment, the cells were seeded at a density of 2 × 10^4 per well in 96-well white microtiter plates. After 48 h, the culture medium was replaced with fresh DMEM supplemented with 0.1% FBS containing different concentrations of the tested compounds or DMSO (0.1%) in duplicate. Luciferase activity was measured after 24 h of treatment using the Bright-Glo luciferase assay system (Promega) according to the manufacturer’s instructions.

AREc32 cells = assay: Cytotoxicity against reporter cells (MTT); type: cell-based
Method: […]. Preliminarily, the cytotoxicity of compounds against AREc32 cells were evaluated, showing no toxicity until 50 μM for compounds BIGI 4b, BIGI 4d, and BIGI 5b and until 100 μM for compound BIGI 5d.
Treatment of stable ARE-luciferase reporter cells with the tested compounds and evaluation of the cellular viability: The NRF2/ARE-luciferase reporter HEK293 stable cell line was seeded and treated as described for the luciferase activity determination, except that transparent culture plates were used instead of white plates. After 24 h of incubation with the tested compounds, the percent of cell viability was measured using MTT assay.

[3] = ORAC-FL antioxidant assay; settings: for ORAC: Trolox equivalents, mean (n = 3) ± SEM; for times less active than melatonin (ORAC): on average
Method: The antioxidant activity of compounds BIGI 4a-d and BIGI 5a-d was determined by the ORAC-FL method. [29] Their radical scavenging properties are expressed as Trolox equivalents (TE) units.
The antioxidant activity of hybrids BIGI 4a-d and BIGI 5a-d was measured by ORAC-FL assay using fluorescein as a fluorescent probe. Briefly, fluorescein and antioxidant were incubated in a black 96-well microplate (Nunc) for 15 min at 37 °C. 2,2′-Azobis(amidinopropane) dihydrochloride was then added quickly using the built-in injector of a Varioskan Flash plate reader (Thermo Scientific, Waltham, MA, USA). […] All the reactions were made in triplicate and at least three different assays were performed for each sample.

[4] = molecular target: T1, hAChE (AChE from human erythrocytes) (Homo sapiens, UniProt P22303); assay: biochemical; type: biochemical; settings: for IC50: ± SD
T1 construct: AChE from human erythrocytes; purchased Sigma Aldrich; host or cells: human erythrocytes (natural source)
T1 sequence (P22303 other isoform, or with tags, fused parts or gaps): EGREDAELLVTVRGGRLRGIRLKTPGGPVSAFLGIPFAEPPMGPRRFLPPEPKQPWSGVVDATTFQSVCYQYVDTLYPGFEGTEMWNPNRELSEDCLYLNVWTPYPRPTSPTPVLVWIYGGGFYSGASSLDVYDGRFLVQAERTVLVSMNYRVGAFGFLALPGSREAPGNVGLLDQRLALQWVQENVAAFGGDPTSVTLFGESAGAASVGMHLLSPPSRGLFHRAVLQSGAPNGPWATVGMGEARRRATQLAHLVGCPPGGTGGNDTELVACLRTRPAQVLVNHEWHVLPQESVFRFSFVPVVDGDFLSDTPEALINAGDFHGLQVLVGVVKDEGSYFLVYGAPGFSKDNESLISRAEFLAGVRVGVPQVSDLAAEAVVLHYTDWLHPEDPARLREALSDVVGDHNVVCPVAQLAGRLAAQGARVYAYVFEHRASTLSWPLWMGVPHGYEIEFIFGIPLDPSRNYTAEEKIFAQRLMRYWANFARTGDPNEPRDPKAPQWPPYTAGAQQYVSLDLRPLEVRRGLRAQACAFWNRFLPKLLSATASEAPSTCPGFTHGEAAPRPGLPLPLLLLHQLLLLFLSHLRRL
Method: The inhibitory capacity of the compounds on AChE biological activity was evaluated using the spectrometric method of Ellman [27]. Acetyl- or butyrylthiocholine iodide and 5,5-dithiobis- (2-nitrobenzoic) acid (DTNB) were purchased from Sigma Aldrich. […] AChE from human erythrocytes (buffered aqueous solution, ≥500 units/mg protein (BCA), Sigma Aldrich) was diluted in 20 mM HEPES buffer, pH 8, 0.1% Triton X-100, to obtain an enzyme solution with 0.25 unit/mL enzyme activity. In the procedure, 100 µL of 0.3 mM DTNB dissolved in phosphate buffer pH 7.4 was added to the 96-well plate followed by 50 µL of test compound solution and 50 µL of enzyme (0.05 U final). After 5 min of preincubation at 25 °C, the reaction was then initiated by the injection of 50 µL of 10 mM acetyl- or butyrylthiocholine iodide solution. […] Assays were performed in singlicate during three independent tests, with a blank containing all components except acetyl- or butyrylthiocholine in order to account for non-enzymatic reaction. The reaction slopes were compared, and the percent inhibition due to the presence of test compounds was calculated by the following: 100 − (vi/v0 × 100) where vi is the rate calculated in the presence of inhibitor and v0 is the enzyme activity.

Nrf2-ARE [5] = system: Nrf2-ARE; set-up: method as in PMID 31838896; settings: cited from earlier work

Row | SMILES | IC50 [1] | Calcium Antagonism (% Inhibition at 10 μM) (calcium channel) | fold less active than TBHQ (CD) (Nrf2-ARE [2]) | times more active than melatonin (CD) (Nrf2-ARE [2]) | Induction of the Nrf2 transcriptional pathway (Nrf2-ARE [2]) | CD (concentration required to double the specific luciferase reporter activity) (Nrf2-ARE [2]) | CD (concentration required to double the specific luciferase reporter activity) (Nrf2-ARE [2]; listed as 5d) | Cytotoxicity: no toxicity until concentration (AREc32 cells) | ORAC [3] | IC50 [4] | times less active than melatonin (ORAC) [3] | fold less active than Donepezil (hAChE) [4] | CD (Nrf2-ARE [5])
1 | C#CCCOc1ccc(C2NC(=S)N(CCC3CCN(Cc4ccccc4)CC3)C(C)=C2C(=O)OCC)cc1 (stereo not shown) [BIGI 5d, Ethyl 1-(2-(1-benzylpiperidin-4-yl)ethyl)-4-(4-(but-3-yn-1-yloxy)phenyl)-6-methyl-2-thioxo-1,2,3,4-tetrahydropyrimidine-5-carboxylate] | 8.54 ± 0.71 µM | 68 ± 12% | 42 fold | 2 times | able to successfully induce the Nrf2 transcriptional pathway | 33.4 ± 4.8 µM | 33.4 µM | 100 µM | 1.57 ± 0.13 TE | 1.271 ± 0.005 µM |  |  | 
2 | C#CCCOc1ccc(C2NC(=O)N(CCC3CCN(Cc4ccccc4)CC3)C(C)=C2C(=O)OCC)cc1 (stereo not shown) [BIGI 4d, Ethyl 1-(2-(1-benzylpiperidin-4-yl)ethyl)-4-(4-(but-3-yn-1-yloxy)phenyl)-6-methyl-2-oxo-1,2,3,4-tetrahydropyrimidine-5-carboxylate] | 6.63 ± 0.71 µM | 50 ± 13% |  |  | able to successfully induce the Nrf2 transcriptional pathway | 7.7 µM and 7.7 ± 2.9 µM |  | 50 µM | 1.85 TE and 1.85 ± 0.16 TE | 0.462 ± 0.04 µM | ~1.4 times |  | 
3 | C#CCOc1ccc(C2NC(=S)N(CC3CCN(Cc4ccccc4)CC3)C(C)=C2C(=O)OCC)cc1 (stereo not shown) [BIGI 5a, Ethyl 1-((1-benzylpiperidin-4-yl)methyl)-6-methyl-4-(4-(prop-2-yn-1-yloxy)phenyl)-2-thioxo-1,2,3,4-tetrahydropyrimidine-5-carboxylate] | 7.64 ± 0.79 µM | 46 ± 18% |  |  |  |  |  |  | 1.35 ± 0.04 TE | > 1 µM |  |  | 
4 | CC(C)(C)c1cc(O)ccc1O [TBHQ, reference compound] |  |  |  |  |  | 0.8 µM and 0.8 ± 0.2 µM |  |  |  |  |  |  | 
5 | C#CCOc1ccc(C2NC(=O)N(CCC3CCN(Cc4ccccc4)CC3)C(C)=C2C(=O)OCC)cc1 (stereo not shown) [BIGI 4b, Ethyl 1-(2-(1-benzylpiperidin-4-yl)ethyl)-6-methyl-2-oxo-4-(4-(prop-2-yn-1-yloxy)phenyl)-1,2,3,4-tetrahydropyrimidine-5-carboxylate] | 4.78 ± 0.58 µM | 67 ± 10% |  |  | able to successfully induce the Nrf2 transcriptional pathway | 7.1 µM and 7.1 ± 0.8 µM |  | 50 µM | 1.60 TE and 1.60 ± 0.15 TE | 0.342 ± 0.064 µM | ~1.4 times | 27 fold | 
6 | COc1ccc2[nH]cc(CCNC(C)=O)c2c1 [Melatonin] |  |  |  |  |  |  |  |  |  |  |  |  | 60 µM
7 | C#CCOc1ccc(C2NC(=O)N(CC3CCN(Cc4ccccc4)CC3)C(C)=C2C(=O)OCC)cc1 (stereo not shown) [BIGI 4a, Ethyl 1-((1-benzylpiperidin-4-yl)methyl)-6-methyl-2-oxo-4-(4-(prop-2-yn-1-yloxy)phenyl)-1,2,3,4-tetrahydropyrimidine-5-carboxylate] | 31.2 ± 1.7 µM | 45 ± 11% |  |  |  |  |  |  | 1.44 ± 0.06 TE | > 1 µM |  |  | 
8 | COCCOC(=O)C1=C(C)NC(C)=C(C(=O)OC(C)C)C1c1cccc([N+](=O)[O-])c1 (stereo not shown) [Nimodipine, reference compound] |  | 50± 10% |  |  |  |  |  |  |  |  |  |  | 
9 | C#CCCOc1ccc(C2NC(=S)N(CC3CCN(Cc4ccccc4)CC3)C(C)=C2C(=O)OCC)cc1 (stereo not shown) [BIGI 5c, Ethyl 1-((1-benzylpiperidin-4-yl)methyl)-4-(4-(but-3-yn-1-yloxy)phenyl)-6-methyl-2-thioxo-1,2,3,4-tetrahydropyrimidine-5-carboxylate] | 33.8 ± 7.89 µM | 63 ± 18% |  |  |  |  |  |  | 1.75 TE and 1.75 ± 0.06 TE | > 1 µM | ~1.4 times |  | 
10 | C#CCOc1ccc(C2NC(=S)N(CCC3CCN(Cc4ccccc4)CC3)C(C)=C2C(=O)OCC)cc1 (stereo not shown) [BIGI 5b, Ethyl 1-(2-(1-benzylpiperidin-4-yl)ethyl)-6-methyl-4-(4-(prop-2-yn-1-yloxy)phenyl)-2-thioxo-1,2,3,4-tetrahydropyrimidine-5-carboxylate] | 5.43 ± 0.24 µM | 74 ± 16% |  |  | able to successfully induce the Nrf2 transcriptional pathway | 13.5 µM and 13.5 ± 9.1 µM |  | 50 µM | 1.41 ± 0.06 TE | 0.352 ± 0.015 µM |  | 27 fold | 
11 | C#CCCOc1ccc(C2NC(=O)N(CC3CCN(Cc4ccccc4)CC3)C(C)=C2C(=O)OCC)cc1 (stereo not shown) [BIGI 4c, Ethyl 1-((1-benzylpiperidin-4-yl)methyl)-4-(4-(but-3-yn-1-yloxy)phenyl)-6-methyl-2-oxo-1,2,3,4-tetrahydropyrimidine-5-carboxylate] | > 10 µM | 40± 13% |  |  |  |  |  |  | 0.98 ± 0.03 TE | > 1 µM |  |  | 
